Data on two compounds can be found in patent publication US8337835B2, “Use of an endogenous ligand for peroxisome proliferator activated receptor alpha to treat liver disorders” (priority 2009, dated 2012).

Structures are written as SMILES.

The subject of series [1] is PPARα target gene acyl CoA oxidase. Briefly: Establishing conditions (dose, rate) for portal vein infusion. The class given is in vivo, mouse. On the procedure:
We therefore extrapolated the doses in mice taking into account the direct intraportal route, and tested doses ranging from 0.1 mg/day to 10 mg/day based on a 25 g mouse. […] Optimal dosing frequency was determined based on kinetic data obtained by injection of ^14C-labeled 16:0/18:1-GPC (American Radiochemicals, St. Louis) into the portal vein of […] mice as shown in FIG. 12. Following a single injection into the portal vein (1.9 μCi/mouse), total counts from both cytoplasmic and nuclear fractions were obtained (FIG. 12A). Using standard pharmacokinetic equations (Hardman et al., 2001), a dosing interval of 8.7 hours was calculated, indicating an optimal dosing frequency of three times a day.

For series [2], the target named is T1, PPARα (Mus musculus, UniProt P23204).
T1 construct: expressed in transfected cells; host or cells: liver of chow- or ZFD-fed WT mice on a PPARα null background, infected with AdFLAG-PPARα adenovirus
T1 sequence (P23204 1-468): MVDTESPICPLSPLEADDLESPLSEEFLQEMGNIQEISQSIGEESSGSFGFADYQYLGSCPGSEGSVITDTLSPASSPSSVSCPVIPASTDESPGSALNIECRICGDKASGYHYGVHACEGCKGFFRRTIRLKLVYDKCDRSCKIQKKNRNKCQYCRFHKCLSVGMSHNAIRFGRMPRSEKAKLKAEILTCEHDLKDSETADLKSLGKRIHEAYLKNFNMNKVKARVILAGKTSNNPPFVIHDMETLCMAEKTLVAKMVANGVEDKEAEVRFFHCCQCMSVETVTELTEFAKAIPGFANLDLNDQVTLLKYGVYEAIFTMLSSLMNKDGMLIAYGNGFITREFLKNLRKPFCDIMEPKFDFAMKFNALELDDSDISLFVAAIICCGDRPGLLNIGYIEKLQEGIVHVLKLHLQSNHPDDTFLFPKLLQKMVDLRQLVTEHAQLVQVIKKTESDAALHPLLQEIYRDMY
Briefly: In vivo competitive inhibition: displacement of 16:0/18:1-GPC (m/z 766) from FLAG-tagged PPARα, ESI/MS. As to conditions: 50 μg/g intraperitoneal; chow and zero fat diet fed WT mice on PPARα null background with AdFLAG-PPARα; 0-60 min. The method, then:
Freshly harvested livers (˜100 mg) were gently homogenized in ice-cold non-detergent hypotonic buffer (10 mM HEPES, pH 7.9, 1.5 mM MgCl2, 10 mM KCl, 100 mM DTT, protease and phosphatase inhibitor cocktail). After an additional 10 min incubation in the hypotonic buffer, the homogenate was centrifuged at 8000×g at 4° C. for 20 min. The pellet was homogenized in ice-cold extraction buffer (10 mM HEPES, pH 7.9, 1.5 mM MgCl2, 0.21 M NaCl, 0.2 mM EDTA, 25% (v/v) glycerol, 100 mM DTT, protease and phosphatase inhibitor cocktail), placed on a rotating shaker at 4° C. for 1 h, then centrifuged at 18,000×g for 10 min. […]
The in vivo displacement of the endogenous PPARα ligand 16:0/18:1-GPC by the PPARα agonist Wy14,643 was assessed by electrospray ionization mass spectrometry (ESI/MS) Analysis. […] Wy14,643 in chow fed WT mice on a PPARα null background injected with AdFLAG-PPARα adenovirus are shown in FIGS. 4A-D. Similarly, representative ESI/MS scans of GPC species at different time intervals following an intraperitoneal injection of 50 μg/g Wy14,643 in ZFD fed mice are shown in FIGS. 4E-H. Insets in FIGS. 4A-H depict the ion at m/z 766 (16:0/18:1-GPC) that is time-dependently competed away with Wy14,643 while quantification of the relative abundance of the peak abundance of m/z 766 ion in response to Wy14,643 is shown in FIG. 4I. […]

On to `CCCCCCCC/C=C\CCCCCCCC(=O)O[C@H](COC(=O)CCCCCCCCCCCCCCC)COP(=O)([O-])OCC[N+](C)(C)C` [16:0/18:1-GPC, 1-palmitoyl-2-oleoyl-sn-glycerol-3-phosphocholine], for which the “lowest dose causing increased expression of the PPARα target gene acyl CoA oxidase” value in series [1] (intraportal, rapid infusion (<1 min), mice) was determined as 10 mg/kg. In series [1] (larger doses and slower infusion rates), the solubility of infusate result is on record as “poor solubility”. Besides, the lethality entry in series [1] (larger doses and slower infusion rates, portal vein) is on record as “death due to portal vein thrombosis”.
Consider `Cc1cccc(Nc2cc(Cl)nc(SCC(=O)O)n2)c1C` [Wy14,643, 4-Chloro-6-(2,3-xylidino)-2-pyrimidinylthioacetic acid], for which the “displacement of 16:0/18:1-GPC (m/z 766) from PPARα” value in series [2] is “displaced from PPARα within minutes”.
